Assay results reported in patent publication US20250171438A1 (Agios Pharmaceuticals, Inc., priority 2022, published 2025).

Biological target: T1, human PAH with the R408W mutation (Homo sapiens, UniProt P00439, R408W)
T1 construct: expressed in transfected cells
T1 sequence (P00439 1-452 R408W): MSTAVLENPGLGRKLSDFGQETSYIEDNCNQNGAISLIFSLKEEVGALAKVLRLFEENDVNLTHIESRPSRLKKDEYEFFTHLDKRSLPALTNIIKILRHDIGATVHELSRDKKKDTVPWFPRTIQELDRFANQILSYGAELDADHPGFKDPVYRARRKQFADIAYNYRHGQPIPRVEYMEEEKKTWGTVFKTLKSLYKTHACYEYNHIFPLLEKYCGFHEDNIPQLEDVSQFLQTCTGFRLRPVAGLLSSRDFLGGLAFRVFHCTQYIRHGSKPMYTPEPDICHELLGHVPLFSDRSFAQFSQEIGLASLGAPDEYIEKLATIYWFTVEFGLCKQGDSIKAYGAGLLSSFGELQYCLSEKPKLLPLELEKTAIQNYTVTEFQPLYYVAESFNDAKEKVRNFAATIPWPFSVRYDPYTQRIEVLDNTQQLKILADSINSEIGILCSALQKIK
Assay: Cell Based Phenylalanine Flux Assay
Settings: A375 cells expressing human R408W PAH; 24 hrs compound incubation; 13C-Tyrosine by LC-MS; average where tested multiple times; read-out: AC50

| Structure (SMILES) | AC50 [nM] |
| --- | --- |
| O=C(c1nnc(-c2cnn(CC(F)F)c2)o1)N1CCc2[nH]cnc2[C@@H]1c1nc2c(F)cccc2s1 [Example 1881, (R)-(5-(1-(2,2-difluoroethyl)-1H-pyrazol-4-yl)-1,3,4-oxadiazol-2-yl)(4-(4-fluorobenzo[d]thiazol-2-yl)-6,7-dihydro-1H-imidazo[4,5-c]pyridin-5(4H)-yl)methanone] | 1000 to 5000 |
| O=C(c1nnc(-c2cnn(CC(F)F)c2)o1)N1CCc2[nH]cnc2[C@H]1c1nc2c(F)cccc2s1 [Example 1882, (S)-(5-(1-(2,2-difluoroethyl)-1H-pyrazol-4-yl)-1,3,4-oxadiazol-2-yl)(4-(4-fluorobenzo[d]thiazol-2-yl)-6,7-dihydro-1H-imidazo[4,5-c]pyridin-5(4H)-yl)methanone] | < 500 |
| Cn1cc(-c2nnc(C(=O)N3CCc4[nH]cnc4[C@H]3c3nc4ccccc4s3)o2)c(C(F)(F)F)n1 [Example 1883] | < 500 |
| Cn1cc(-c2nnc(C(=O)N3CCc4[nH]cnc4[C@@H]3c3nc4ccccc4s3)o2)c(C(F)(F)F)n1 [Example 1884, (R)-(4-(benzo[d]thiazol-2-yl)-6,7-dihydro-1H-imidazo[4,5-c]pyridin-5(4H)-yl)(5-(1-methyl-3-(trifluoromethyl)-1H-pyrazol-4-yl)-1,3,4-oxadiazol-2-yl)methanone] | 1000 to 5000 |
| O=C(c1nnc(-c2cc[nH]n2)o1)N1CCc2[nH]cnc2[C@@H]1c1nc2c(F)cccc2s1 [Example 1885, (R)-(5-(1H-pyrazol-3-yl)-1,3,4-oxadiazol-2-yl)(4-(4-fluorobenzo[d]thiazol-2-yl)-6,7-dihydro-1H-imidazo[4,5-c]pyridin-5(4H)-yl)methanone] | 1000 to 5000 |
| O=C(c1nnc(-c2cc[nH]n2)o1)N1CCc2[nH]cnc2[C@H]1c1nc2c(F)cccc2s1 [Example 1886] | 500 to 1000 |
| O=C(c1nnc(-c2ccn(C(F)F)n2)o1)N1CCc2[nH]cnc2[C@@H]1c1nc2c(F)cccc2s1 [Example 1887, (R)-(5-(1-(difluoromethyl)-1H-pyrazol-3-yl)-1,3,4-oxadiazol-2-yl)(4-(4-fluorobenzo[d]thiazol-2-yl)-6,7-dihydro-1H-imidazo[4,5-c]pyridin-5(4H)-yl)methanone] | 1000 to 5000 |
| O=C(c1nnc(-c2ccn(C(F)F)n2)o1)N1CCc2[nH]cnc2[C@H]1c1nc2c(F)cccc2s1 [Example 1888, (S)-(5-(1-(difluoromethyl)-1H-pyrazol-3-yl)-1,3,4-oxadiazol-2-yl)(4-(4-fluorobenzo[d]thiazol-2-yl)-6,7-dihydro-1H-imidazo[4,5-c]pyridin-5(4H)-yl)methanone] | < 500 |
| O=C(c1nnc(-c2cc(C(F)(F)F)ccn2)o1)N1CCc2[nH]cnc2[C@H]1c1nc2ccccc2s1 [Example 1889, [(4S)-4-(1,3-benzothiazol-2-yl)-1,4,6,7-tetrahydroimidazo[4,5-c]pyridin-5-yl]-[5-[4-(trifluoromethyl)-2-pyridyl]-1,3,4-oxadiazol-2-yl]methanone] | < 500 |
| O=C(c1nnc(-c2cc(C(F)(F)F)ccn2)o1)N1CCc2[nH]cnc2[C@@H]1c1nc2ccccc2s1 [Example 1890, [(4R)-4-(1,3-benzothiazol-2-yl)-1,4,6,7-tetrahydroimidazo[4,5-c]pyridin-5-yl]-[5-[4-(trifluoromethyl)-2-pyridyl]-1,3,4-oxadiazol-2-yl]methanone] | 1000 to 5000 |
| O=C(c1nnc(C2CC(F)(F)C2)o1)N1CCc2[nH]cnc2[C@@H]1c1nc2c(F)cccc2s1 [Example 1891, (R)-(5-(3,3-difluorocyclobutyl)-1,3,4-oxadiazol-2-yl)(4-(4-fluorobenzo[d]thiazol-2-yl)-6,7-dihydro-1H-imidazo[4,5-c]pyridin-5(4H)-yl)methanone] | 1000 to 5000 |
| O=C(c1nnc(C2CC(F)(F)C2)o1)N1CCc2[nH]cnc2[C@H]1c1nc2c(F)cccc2s1 [Example 1892, (S)-(5-(3,3-difluorocyclobutyl)-1,3,4-oxadiazol-2-yl)(4-(4-fluorobenzo[d]thiazol-2-yl)-6,7-dihydro-1H-imidazo[4,5-c]pyridin-5(4H)-yl)methanone] | 500 to 1000 |
| CC(C)(C)OC(=O)N1CC(c2nnc(C(=O)N3CCc4[nH]cnc4[C@H]3c3nc4ccccc4s3)o2)C1 [Example 1893, (S)-tert-butyl 3-(5-(4-(benzo[d]thiazol-2-yl)-4,5,6,7-tetrahydro-1H-imidazo[4,5-c]pyridine-5-carbonyl)-1,3,4-oxadiazol-2-yl)azetidine-1-carboxylate] | 500 to 1000 |
| CC(C)(C)OC(=O)N1CC(c2nnc(C(=O)N3CCc4[nH]cnc4[C@@H]3c3nc4ccccc4s3)o2)C1 [Example 1894, (R)-tert-butyl 3-(5-(4-(benzo[d]thiazol-2-yl)-4,5,6,7-tetrahydro-1H-imidazo[4,5-c]pyridine-5-carbonyl)-1,3,4-oxadiazol-2-yl)azetidine-1-carboxylate] | 1000 to 5000 |
| O=C(c1cnn(-c2ccccn2)c1Cl)N1CCc2[nH]cnc2[C@H]1c1nc2ccccc2s1 [Example 1895] | 500 to 1000 |
| O=C(c1cnn(-c2ccccn2)c1Cl)N1CCc2[nH]cnc2[C@@H]1c1nc2ccccc2s1 [Example 1896, (R)-(4-(benzo[d]thiazol-2-yl)-6,7-dihydro-1H-imidazo[4,5-c]pyridin-5(4H)-yl)(5-chloro-1-(pyridin-2-yl)-1H-pyrazol-4-yl)methanone] | 1000 to 5000 |
| CC(C)(O)c1nc(Br)c(C(=O)N2CCc3[nH]cnc3[C@H]2c2nc3c(F)cccc3s2)o1 [Example 1897, (S)-(4-bromo-2-(2-hydroxypropan-2-yl)oxazol-5-yl)(4-(4-fluorobenzo[d]thiazol-2-yl)-6,7-dihydro-1H-imidazo[4,5-c]pyridin-5(4H)-yl)methanone] | < 500 |
| CC(C)(O)c1nc(Br)c(C(=O)N2CCc3[nH]cnc3[C@@H]2c2nc3c(F)cccc3s2)o1 [Example 1898, (R)-(4-bromo-2-(2-hydroxypropan-2-yl)oxazol-5-yl)(4-(4-fluorobenzo[d]thiazol-2-yl)-6,7-dihydro-1H-imidazo[4,5-c]pyridin-5(4H)-yl)methanone] | 1000 to 5000 |
| O=C(c1nnc(-c2cc[nH]n2)o1)N1CCc2[nH]cnc2[C@H]1c1nc2ccccc2s1 [Example 1899] | < 500 |
| O=C(c1nnc(-c2cc[nH]n2)o1)N1CCc2[nH]cnc2[C@@H]1c1nc2ccccc2s1 [Example 1900, (R)-(5-(1H-pyrazol-3-yl)-1,3,4-oxadiazol-2-yl)(4-(benzo[d]thiazol-2-yl)-6,7-dihydro-1H-imidazo[4,5-c]pyridin-5(4H)-yl)methanone] | 1000 to 5000 |
| O=C(c1nnc(-c2ncccc2F)o1)N1CCc2[nH]cnc2[C@@H]1c1nc2c(F)cccc2s1 [Example 1901, (R)-(4-(4-fluorobenzo[d]thiazol-2-yl)-6,7-dihydro-1H-imidazo[4,5-c]pyridin-5(4H)-yl)(5-(3-fluoropyridin-2-yl)-1,3,4-oxadiazol-2-yl)methanone] | 500 to 1000 |
| O=C(c1nnc(-c2ncccc2F)o1)N1CCc2[nH]cnc2[C@H]1c1nc2c(F)cccc2s1 [Example 1902, (S)-(4-(4-fluorobenzo[d]thiazol-2-yl)-6,7-dihydro-1H-imidazo[4,5-c]pyridin-5(4H)-yl)(5-(3-fluoropyridin-2-yl)-1,3,4-oxadiazol-2-yl)methanone] | < 500 |
